Reference: patent US20250136576A1, “Heterocyclic Compounds and Uses Thereof” (ACEA Therapeutics, Inc., priority 2021, published 2025)
pIC50: −log10 of the molar value.

Key:
Type in all cases: cell-based
MV-4-11 (AML) cells = assay: Cell proliferation and growth inhibition assay (CCK-8) in MV-4-11; details: Homo sapiens, MV4-11; MV-4-11 cells, treated with test compounds for 72 hrs, CCK-8 viability
Experimental: MV-4-11 and H1975 cells were obtained from the American Type Culture Collection and KM12-luc cells were obtained from JCRB Cell Bank. All cell lines were maintained at 37° C. with 5% C02, in media supplemented with 10% fetal bovine serum and penicillin (100 units/mL) and streptomycin (100 μg/mL). MV-4-11 cells were maintained in Iscove's Modified Dubecco's Medium, H1975 cells were cultured with RPMI 1640 media, and KM12-luc cells were maintained in Dulbecco's Modification of Eagle's Medium. CCK-8 reagent was obtained from Yeasen.
Cell proliferation was assessed by CCK-8 assay (Yeasen) per the manufacturer's instructions. The MV-4-11 (AML), H1975, and KM12-luc cells were seeded at 30,000, 3,000 and 2,500 cells per well onto 96-well plates, and after a 24 h incubation, the cells were treated with test compounds for 72 hrs. Cell viability was assayed by incubating the cells with CCK-8 reagent for 1-4 hrs. Absorbance was measured at OD450 using the Beckman DTX880. The data was calculated using GraphPad Prism version 6.01. The IC50 values were fitted using a non-linear regression model with a sigmoidal dose response.

KM12-luc cells = assay: Cell proliferation and growth inhibition assay (CCK-8) in KM12-luc; details: KM12-Luc, 72 h, KM12-luc cells, treated with test compounds for 72 hrs, CCK-8 viability; read-out: NTRK IC50 in KM12-luc
Outline: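 Cells were grown at 37 °C, 5% CO2 with 10% FBS: MV-4-11 in IMDM, H1975 in RPMI 1640, KM12-luc in DMEM. Viability was read by CCK-8 (1-4 hrs reagent incubation, absorbance at OD450). IC50 came from a non-linear sigmoidal dose-response fit.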

H1975 cells = assay: Cell proliferation and growth inhibition assay (CCK-8) in H1975; details: Homo sapiens, NCI-H1975, 72 h, treated with test compounds for 72 hrs, CCK-8 viability, read-out: EGFR IC50 in H1975
Outline: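 Cells seeded at 30,000 (MV-4-11, IMDM) or 3,000 (H1975, RPMI 1640) per well, left 24 h, then compound-treated 72 h at 37 °C, 5% CO2, 10% FBS. Viability read by CCK-8 (1–4 h) at OD450. IC50 from sigmoidal dose-response nonlinear regression.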

SMILES	pIC50 (MV-4-11 (AML) cells)	pIC50 (H1975 cells)	pIC50 (KM12-luc cells)
CCN(CCN(C)C)c1ccc(Nc2ncc(C(F)(F)F)c(-c3c[nH]c4c(F)cccc34)n2)cc1N [Compound 337, N^1-(2-(dimethylamino)ethyl)-N^1-ethyl-N^4-(4-(7-fluoro-1H-indol-3-yl)-5-(trifluoromethyl)pyrimidin-2-yl)benzene-1,2,4-triamine]	7.95	6.44	7.98
CC(=O)Nc1cc(Nc2ncc(C(F)(F)F)c(-c3c[nH]c4c(F)cccc34)n2)ccc1OCCN(C)C [Compound 343, N-(2-(2-(dimethylamino)ethoxy)-5-((4-(7-fluoro-1H-indol-3-yl)-5-(trifluoromethyl)pyrimidin-2-yl)amino)phenyl)acetamide]	8.59	7.11	8.37
CC(=O)Nc1cc(Nc2ncc(C(F)(F)F)c(-c3c[nH]c4c(C)cccc34)n2)ccc1N(C)CCN(C)C [Compound 358, N-(2-((2-(dimethylamino)ethyl)(methyl)amino)-5-((4-(7-methyl-1H-indol-3-yl)-5-(trifluoromethyl)pyrimidin-2-yl)amino)phenyl)acetamide]	8.36	7.33	8.51
Cc1cccc2c(-c3nc(Nc4ccc(N(C)CCN(C)C)c(N)c4)ncc3C(F)(F)F)c[nH]c12 [Compound 359, N^1-(2-(dimethylamino)ethyl)-N^1-methyl-N^4-(4-(7-methyl-1H-indol-3-yl)-5-(trifluoromethyl)pyrimidin-2-yl)benzene-1,2,4-triamine]	8.23	6.92	8.26
CC(=O)Nc1cc(Nc2ncc(C(F)(F)F)c(-c3c[nH]c4c(C)cccc34)n2)ccc1OCCN(C)C [Compound 365, N-(2-(2-(dimethylamino)ethoxy)-5-((4-(7-methy-1H-indol-3-yl)-5-(trifluoromethyl)pyrimidin-2-yl)amino)phenyl)acetamide]	8.36	7.17	8.37
COc1cccc2c(-c3nc(Nc4ccc(N(C)CCN(C)C)c(NC(C)=O)c4)ncc3C(F)(F)F)c[nH]c12 [Compound 374, N-(2-((2-(dimethylamino)ethyl)(methyl)amino)-5-((4-(7-methoxy-1H-indol-3-yl)-5-(trifluoromethyl)pyrimidin-2-yl)amino)phenyl)acetamide]	8.28	7.28	8.43
COc1cccc2c(-c3nc(Nc4ccc(N(C)CCN(C)C)c(N)c4)ncc3C(F)(F)F)c[nH]c12 [Compound 375, N^1-(2-(dimethylamino)ethyl)-N^4-(4-(7-methoxy-1H-indol-3-yl)-5-(trifluoromethyl)pyrimidin-2-yl)-N^1-methylbenzene-1,2,4-triamine]	8.38	6.82	8.39
COc1cccc2c(-c3nc(Nc4ccc(OCCN(C)C)c(NC(C)=O)c4)ncc3C(F)(F)F)c[nH]c12 [Compound 381, N-(2-(2-(dimethylamino)ethoxy)-5-((4-(7-methoxy-1H-indol-3-yl)-5-(trifluoromethyl)pyrimidin-2-yl)amino)phenyl)acetamide]	8.28	6.78	8.14
CC(=O)Nc1cc(Nc2ncc(Cl)c(-c3cn(C)c4ccccc34)n2)ccc1N1CCC(N(C)C)C1 (stereo not drawn) [Compound 402, N-(5-((5-chloro-4-(1-methyl-1H-indol-3-yl)pyrimidin-2-yl)amino)-2-(3-(dimethylamino)pyrrolidin-1-yl)phenyl)acetamide]	7.19	5.92	7.56
Cc1cccc2c(-c3nc(Nc4ccc(N(C)CCN(C)C)c(N)c4)ncc3Cl)c[nH]c12 [Compound 422, N^4-(5-chloro-4-(7-methyl-1H-indol-3-yl)pyrimidin-2-yl)-N^1-(2-(dimethylamino)ethyl)-N^1-methylbenzene-1,2,4-triamine]	8.28	6.54	8.28
CC(=O)Nc1cc(Nc2ncc(Cl)c(-c3c[nH]c4ccccc34)n2)ccc1N1CCC(N(C)C)C1 (stereo not drawn) [Compound 444, N-(5-((5-chloro-4-(1H-indol-3-yl)pyrimidin-2-yl)amino)-2-(3-(dimethylamino)pyrrolidin-1-yl)phenyl)acetamide]	8.54	6.52	8.26
CC(=O)Nc1cc(Nc2ncc(Cl)c(-c3c[nH]c4ccccc34)n2)ccc1N(C)C(=O)CCN(C)C [Compound 446, N-(2-acetamido-4-((5-chloro-4-(1H-indol-3-yl)pyrimidin-2-yl)amino)phenyl)-3-(dimethylamino)-N-methylpropanamide]	7.97	6.18	8.31

Continued, in another order:

pIC50 (MV-4-11 (AML) cells)	pIC50 (H1975 cells)	SMILES	pIC50 (KM12-luc cells)
8.27	6.69	CC(=O)Nc1cc(Nc2ncc(C(F)(F)F)c(-c3c[nH]c4c(F)cccc34)n2)ccc1N1CC[C@@H](N(C)C)C1 [Compound R-344, (R)—N-(2-(3-(dimethylamino)pyrrolidin-1-yl)-5-((4-(7-fluoro-1H-indol-3-yl)-5-(tri-fluoromethyl)pyrimidin-2-yl)amino)phenyl)acetamide]	8.13
8.28	7.05	CC(=O)Nc1cc(Nc2ncc(C(F)(F)F)c(-c3c[nH]c4c(C)cccc34)n2)ccc1N1CC[C@@H](N(C)C)C1 [Compound R-366, (R)—N-(2-(3-(dimethylamino)pyrrolidin-1-yl)-5-((4-(7-methyl-1H-indol-3-yl)-5-(trifluoromethyl)pyrimidin-2-yl)amino)phenyl)acetamide]	8.28
8.20	6.89	COc1cccc2c(-c3nc(Nc4ccc(N5CC[C@@H](N(C)C)C5)c(NC(C)=O)c4)ncc3C(F)(F)F)c[nH]c12 [Compound R-382, (R)—N-(2-(3-(dimethylamino)pyrrolidin-1-yl)-5-((4-(7-methoxy-1H-indol-3-yl)-5-(trifluoromethyl)pyrimidin-2-yl)amino)phenyl)acetamide]	8.04
8.33	6.89	COc1cccc2c(-c3nc(Nc4ccc(N5CC[C@@H](N(C)C)C5)c(N)c4)ncc3C(F)(F)F)c[nH]c12 [Compound R-383, (R)-4-(3-(dimethylamino)pyrrolidin-1-yl)-N^1-(4-(7-methoxy-1H-indol-3-yl)-5-(trifluoromethyl)pyrimidin-2-yl)benzene-1,3-diamine]	8.07
8.52	6.82	CC(=O)Nc1cc(Nc2ncc(Cl)c(-c3c[nH]c4c(C)cccc34)n2)ccc1N1CC[C@@H](N(C)C)C1 [Compound R-426, (R)—N-(5-((5-chloro-4-(7-methyl-1H-indol-3-yl)pyrimidin-2-yl)amino)-2-(3-(dimethylamino)pyrrolidin-1-yl)phenyl)acetamide]	8.68
8.25	6.70	CC(=O)Nc1cc(Nc2ncc(C(F)(F)F)c(-c3c[nH]c4c(F)cccc34)n2)ccc1N1CC[C@H](N(C)C)C1 [Compound S-344, (S)—N-(2-(3-(dimethylamino)pyrrolidin-1-yl)-5-((4-(7-fluoro-1H-indol-3-yl)-5-(tri-fluoromethyl)pyrimidin-2-yl)amino)phenyl)acetamide]	8.20
8.52	7.01	CC(=O)Nc1cc(Nc2ncc(C(F)(F)F)c(-c3c[nH]c4c(C)cccc34)n2)ccc1N1CC[C@H](N(C)C)C1 [Compound S-366, (S)—N-(2-(3-(dimethylamino)pyrrolidin-1-yl)-5-((4-(7-methyl-1H-indol-3-yl)-5-(trifluoromethyl)pyrimidin-2-yl)amino)phenyl)acetamide]	8.51
8.43	6.87	COc1cccc2c(-c3nc(Nc4ccc(N5CC[C@H](N(C)C)C5)c(NC(C)=O)c4)ncc3C(F)(F)F)c[nH]c12 [Compound S-382a, (S)—N-(2-(3-(dimethylamino)pyrrolidin-1-yl)-5-((4-(7-methoxy-1H-indol-3-yl)-5-(trifluoromethyl)pyrimidin-2-yl)amino)phenyl)acetamide]	8.28
8.34	6.93	COc1cccc2c(-c3nc(Nc4ccc(N5CC[C@H](N(C)C)C5)c(N)c4)ncc3C(F)(F)F)c[nH]c12 [Compound S-383, (S)-4-(3-(dimethylamino)pyrrolidin-1-yl)-N^1-(4-(7-methoxy-1-1H-indol-3-yl)-5-(trifluoromethyl)pyrimidin-2-yl)benzene-1,3-diamine]	8.02
